Laboratory results from patent US8883812B2, “Piperidinyl pyrimidine amides as Kv7 potassium channel openers” (Pfizer Inc., priority 2010, dated 2014).

Experiments:
[1] = Compound concentrations (exposure) in rat DRF safety study
Male Wistar Han IGS rats = assay: Safety studies - behavioral observations (rat DRF); settings: for Rat DRF Dose, Threshold for MCS / Rat DRF Dose, NOEL / Rat DRF Dose, Threshold for SAE: oral gavage, single dose; for Rat DRF Dose, Threshold for MCS: manageable clinical signs; for Rat DRF Dose, NOEL: no observable effect limit; for Rat DRF Dose, Threshold for SAE: serious adverse event; for Rat DRF Dose, Threshold for MCS / Rat DRF Dose, NOEL / Rat DRF Dose, Threshold for SAE / margin with regards to serious adverse events: rat; for margin with regards to serious adverse events: text statement comparing with retigabine
[2] = Predicted human efficacious concentration; settings: unbound plasma
in vivo = settings: male, Wistar Han IGS (CRL:WI [Han]), rat, po
[3] = read-out: Rat DRF Cmax, Threshold for MCS, oral gavage, at MCS threshold dose
[4] = read-out: Rat DRF Cmax, Threshold for SAE, oral gavage, at SAE threshold dose
[5] = ratio of free brain exposure at the dose to projected human concentration

Row | SMILES | Cmax [1, 3] [nM] | Cmax [1, 4] [nM] | Rat DRF Dose, Threshold for MCS (Male Wistar Han IGS rats) [mg/kg] | Rat DRF Dose, NOEL (Male Wistar Han IGS rats) [mg/kg] | Rat DRF Dose, Threshold for SAE (Male Wistar Han IGS rats) [mg/kg] | margin with regards to serious adverse events (Male Wistar Han IGS rats) [×] | Rat DRF TI (toxicity index), NOEL (Male Wistar Han IGS rats; [5]) | Rat DRF TI (toxicity index), Threshold for MCS (Male Wistar Han IGS rats; [5]) | Rat DRF TI (toxicity index), Threshold for SAE (Male Wistar Han IGS rats; [5]) | Predicted human Ceff Cp,u [2] [nM] | Cmax (in vivo) [nM] | Cmax ([1]; read-out: Rat DRF Cmax, NOEL, oral gavage, at NOEL dose) [nM]
1 | COc1nc(N2CCC(OC)CC2)nc(OC)c1NC(=O)CC(C)(C)C [Example 1, N-(4,6-dimethoxy-2-(4-methoxypiperidin-1-yl)pyrimidin-5-yl)-3,3-dimethylbutanamide] | 99 | 866 | 10 | 3 | 100 | 69 | 4.2 | 7.6 | 67 | 13 | 54 | –
2 | CCOC(=O)Nc1ccc(NCc2ccc(F)cc2)cc1N [Retigabine, N-(2-amino-4-(4-fluorobenzylamino)-phenyl)carbamic acid ethyl ester, reference compound] | 870 to 2390 | 2390 | 30 to 50 | 30 | 50 | 3.9 | – | – | – | 607 | – | 870
